Data from article PMC4770715, “LIM kinase inhibitors disrupt mitotic microtubule organization and impair tumor cell proliferation” (Oncotarget, 2015).

What was measured:
Assay in all cases: biochemical
Set-up in all cases: KINOMEscan active-site competition binding, percent of control (100 = no competition)
Conditions in all cases: competition binding, percent control
[1] = biological target: T1, ABL1(M351T)-phosphorylated (Homo sapiens, UniProt P00519, M351T)
T1 construct: phosphorylated
Text: (§1) Given the potential for the use of LIMK inhibitors as cancer chemotherapeutics, a high-throughput drug discovery and medicinal chemistry program was undertaken. Details of the screening methodology and description of initial hit matter were described in [38]. […] Details of their chemical synthesis are described in Charles et al.. […] These and additional physiochemical parameters are in Supplemental Table 5. […] Kinases inhibited >25% to 50% have yellow circles, 51% to 75% have orange circles, and >76% have red circles. In each case, the size of the circle is proportional to percentage inhibition. LIMK1 and LIMK2 positions are indicated in blue. Illustration reproduced courtesy of Cell Signaling Technology, Inc. (www.cellsignal.com). B. CRT0105950 structure and kinome selectivity mapping as described above. C.

AURKA = AURKA (Homo sapiens, UniProt O14965)
Text: as §1

CSNK1A1L = CSNK1A1L (Homo sapiens, UniProt Q8N752)
Sequence of CSNK1A1L (Q8N752 whole entry): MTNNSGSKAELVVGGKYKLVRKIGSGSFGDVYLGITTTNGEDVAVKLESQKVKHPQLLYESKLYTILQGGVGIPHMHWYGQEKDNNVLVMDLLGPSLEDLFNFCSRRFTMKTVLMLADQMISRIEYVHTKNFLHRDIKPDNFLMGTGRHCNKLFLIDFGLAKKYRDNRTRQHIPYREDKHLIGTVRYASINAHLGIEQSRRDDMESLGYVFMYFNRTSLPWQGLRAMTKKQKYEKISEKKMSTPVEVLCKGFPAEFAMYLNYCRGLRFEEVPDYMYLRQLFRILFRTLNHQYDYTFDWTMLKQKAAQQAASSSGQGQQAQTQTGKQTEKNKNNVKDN
Text: as §1

DAPK3 = DAPK3 (Homo sapiens, UniProt O43293)
Text: as §1

EPHB6 = EPHB6 (Homo sapiens, UniProt O15197)
Text: as §1

ERK5 = biological target: T2, ERK5 (Homo sapiens, UniProt Q13164)
T2 construct: gene MAPK7
Text: as §1

FES = FES (Homo sapiens, UniProt P07332)
Text: as §1

FGFR2 = FGFR2 (Homo sapiens, UniProt P21802)
Sequence of FGFR2 (P21802 whole entry): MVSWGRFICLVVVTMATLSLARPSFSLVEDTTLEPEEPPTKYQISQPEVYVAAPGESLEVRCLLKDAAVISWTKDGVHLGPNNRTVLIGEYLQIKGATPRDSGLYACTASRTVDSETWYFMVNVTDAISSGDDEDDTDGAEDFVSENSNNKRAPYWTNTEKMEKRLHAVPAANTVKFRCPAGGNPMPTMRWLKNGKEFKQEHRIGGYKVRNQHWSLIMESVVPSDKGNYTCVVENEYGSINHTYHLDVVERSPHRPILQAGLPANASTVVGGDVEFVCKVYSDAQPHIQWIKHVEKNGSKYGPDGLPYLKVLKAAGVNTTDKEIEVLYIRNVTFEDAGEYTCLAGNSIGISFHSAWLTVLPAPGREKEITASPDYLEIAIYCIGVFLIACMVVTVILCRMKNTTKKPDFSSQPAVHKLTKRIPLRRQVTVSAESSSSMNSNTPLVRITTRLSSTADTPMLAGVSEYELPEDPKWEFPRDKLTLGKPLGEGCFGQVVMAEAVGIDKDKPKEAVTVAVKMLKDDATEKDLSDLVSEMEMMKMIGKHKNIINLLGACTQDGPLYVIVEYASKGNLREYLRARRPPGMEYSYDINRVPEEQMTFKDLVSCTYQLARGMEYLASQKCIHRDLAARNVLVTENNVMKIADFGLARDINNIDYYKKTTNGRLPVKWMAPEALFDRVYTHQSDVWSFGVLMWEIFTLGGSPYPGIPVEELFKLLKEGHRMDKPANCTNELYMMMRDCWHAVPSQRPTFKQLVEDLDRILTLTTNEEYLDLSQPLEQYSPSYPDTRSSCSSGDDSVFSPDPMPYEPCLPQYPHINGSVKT
Text: as §1

IKK-alpha = biological target: T3, IKK-alpha (Homo sapiens, UniProt O15111)
T3 construct: gene CHUK
T3 sequence (O15111 whole entry): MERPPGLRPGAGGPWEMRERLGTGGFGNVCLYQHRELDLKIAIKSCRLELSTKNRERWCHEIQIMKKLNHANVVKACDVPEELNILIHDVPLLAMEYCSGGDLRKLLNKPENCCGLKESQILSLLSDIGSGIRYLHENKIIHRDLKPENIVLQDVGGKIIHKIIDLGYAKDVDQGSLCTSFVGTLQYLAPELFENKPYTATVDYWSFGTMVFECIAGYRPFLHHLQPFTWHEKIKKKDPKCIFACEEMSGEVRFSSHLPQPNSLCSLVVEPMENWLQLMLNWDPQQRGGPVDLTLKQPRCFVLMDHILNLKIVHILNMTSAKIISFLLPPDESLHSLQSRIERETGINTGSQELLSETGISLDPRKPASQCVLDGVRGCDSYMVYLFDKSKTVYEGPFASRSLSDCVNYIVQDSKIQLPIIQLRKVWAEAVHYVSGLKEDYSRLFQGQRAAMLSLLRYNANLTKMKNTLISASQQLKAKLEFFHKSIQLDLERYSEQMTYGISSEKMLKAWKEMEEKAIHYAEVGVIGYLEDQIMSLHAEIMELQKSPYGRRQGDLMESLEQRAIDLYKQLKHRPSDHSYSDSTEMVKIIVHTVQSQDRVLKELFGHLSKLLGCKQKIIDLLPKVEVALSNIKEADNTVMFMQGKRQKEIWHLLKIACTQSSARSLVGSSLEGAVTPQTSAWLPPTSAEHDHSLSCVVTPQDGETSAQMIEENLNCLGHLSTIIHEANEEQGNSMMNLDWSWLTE
Text: as §1

INSR = INSR (Homo sapiens, UniProt P06213)
Text: as §1

KIT(L576P) = KIT(L576P) (Homo sapiens, UniProt P10721, L576P)
Text: as §1

KIT(V559D) = KIT(V559D) (Homo sapiens, UniProt P10721, V559D)
Text: as §1

MAP3K1 = MAP3K1 (Homo sapiens, UniProt Q13233)
Text: as §1

NEK4 = NEK4 (Homo sapiens, UniProt P51957)
Sequence of NEK4 (P51957 whole entry): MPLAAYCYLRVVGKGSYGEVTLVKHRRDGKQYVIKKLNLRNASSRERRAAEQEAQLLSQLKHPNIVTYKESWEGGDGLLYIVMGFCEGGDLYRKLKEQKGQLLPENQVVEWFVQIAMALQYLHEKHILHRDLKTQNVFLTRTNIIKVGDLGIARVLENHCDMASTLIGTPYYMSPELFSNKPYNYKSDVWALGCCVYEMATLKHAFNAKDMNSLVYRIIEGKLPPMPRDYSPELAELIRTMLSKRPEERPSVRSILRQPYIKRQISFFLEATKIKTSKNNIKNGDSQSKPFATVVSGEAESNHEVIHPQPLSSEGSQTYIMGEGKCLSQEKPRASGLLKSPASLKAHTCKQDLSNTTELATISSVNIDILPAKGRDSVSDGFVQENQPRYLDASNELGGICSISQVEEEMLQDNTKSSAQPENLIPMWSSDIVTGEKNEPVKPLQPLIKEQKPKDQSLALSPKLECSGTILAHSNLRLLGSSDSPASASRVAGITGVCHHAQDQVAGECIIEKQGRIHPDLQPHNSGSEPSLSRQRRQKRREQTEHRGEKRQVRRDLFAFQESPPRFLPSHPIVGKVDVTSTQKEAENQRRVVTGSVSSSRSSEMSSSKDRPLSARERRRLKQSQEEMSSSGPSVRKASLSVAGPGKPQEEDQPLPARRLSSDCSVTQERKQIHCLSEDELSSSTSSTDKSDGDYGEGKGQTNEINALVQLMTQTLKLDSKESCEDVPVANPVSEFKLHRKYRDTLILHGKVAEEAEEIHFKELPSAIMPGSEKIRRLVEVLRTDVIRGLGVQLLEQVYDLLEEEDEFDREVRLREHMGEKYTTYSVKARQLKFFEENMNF
Text: as §1

NLK = NLK (Homo sapiens, UniProt Q9UBE8)
Sequence of NLK (Q9UBE8 whole entry): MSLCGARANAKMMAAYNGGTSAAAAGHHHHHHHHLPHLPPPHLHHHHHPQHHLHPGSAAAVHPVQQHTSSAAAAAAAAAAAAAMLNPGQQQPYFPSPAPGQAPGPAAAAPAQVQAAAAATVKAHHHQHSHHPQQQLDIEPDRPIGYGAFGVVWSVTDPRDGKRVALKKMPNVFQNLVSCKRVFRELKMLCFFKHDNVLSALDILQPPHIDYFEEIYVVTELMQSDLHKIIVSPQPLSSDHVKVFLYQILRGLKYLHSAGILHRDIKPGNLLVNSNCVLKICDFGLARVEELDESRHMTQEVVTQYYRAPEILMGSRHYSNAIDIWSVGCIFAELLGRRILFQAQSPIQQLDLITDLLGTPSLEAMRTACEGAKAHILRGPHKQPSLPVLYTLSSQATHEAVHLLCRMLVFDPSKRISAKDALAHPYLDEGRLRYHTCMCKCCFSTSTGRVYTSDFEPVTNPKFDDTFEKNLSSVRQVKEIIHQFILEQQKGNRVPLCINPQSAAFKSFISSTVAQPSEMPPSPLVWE
Text: as §1

PIK3C2B = PIK3C2B (Homo sapiens, UniProt O00750)
Sequence of PIK3C2B (O00750 whole entry): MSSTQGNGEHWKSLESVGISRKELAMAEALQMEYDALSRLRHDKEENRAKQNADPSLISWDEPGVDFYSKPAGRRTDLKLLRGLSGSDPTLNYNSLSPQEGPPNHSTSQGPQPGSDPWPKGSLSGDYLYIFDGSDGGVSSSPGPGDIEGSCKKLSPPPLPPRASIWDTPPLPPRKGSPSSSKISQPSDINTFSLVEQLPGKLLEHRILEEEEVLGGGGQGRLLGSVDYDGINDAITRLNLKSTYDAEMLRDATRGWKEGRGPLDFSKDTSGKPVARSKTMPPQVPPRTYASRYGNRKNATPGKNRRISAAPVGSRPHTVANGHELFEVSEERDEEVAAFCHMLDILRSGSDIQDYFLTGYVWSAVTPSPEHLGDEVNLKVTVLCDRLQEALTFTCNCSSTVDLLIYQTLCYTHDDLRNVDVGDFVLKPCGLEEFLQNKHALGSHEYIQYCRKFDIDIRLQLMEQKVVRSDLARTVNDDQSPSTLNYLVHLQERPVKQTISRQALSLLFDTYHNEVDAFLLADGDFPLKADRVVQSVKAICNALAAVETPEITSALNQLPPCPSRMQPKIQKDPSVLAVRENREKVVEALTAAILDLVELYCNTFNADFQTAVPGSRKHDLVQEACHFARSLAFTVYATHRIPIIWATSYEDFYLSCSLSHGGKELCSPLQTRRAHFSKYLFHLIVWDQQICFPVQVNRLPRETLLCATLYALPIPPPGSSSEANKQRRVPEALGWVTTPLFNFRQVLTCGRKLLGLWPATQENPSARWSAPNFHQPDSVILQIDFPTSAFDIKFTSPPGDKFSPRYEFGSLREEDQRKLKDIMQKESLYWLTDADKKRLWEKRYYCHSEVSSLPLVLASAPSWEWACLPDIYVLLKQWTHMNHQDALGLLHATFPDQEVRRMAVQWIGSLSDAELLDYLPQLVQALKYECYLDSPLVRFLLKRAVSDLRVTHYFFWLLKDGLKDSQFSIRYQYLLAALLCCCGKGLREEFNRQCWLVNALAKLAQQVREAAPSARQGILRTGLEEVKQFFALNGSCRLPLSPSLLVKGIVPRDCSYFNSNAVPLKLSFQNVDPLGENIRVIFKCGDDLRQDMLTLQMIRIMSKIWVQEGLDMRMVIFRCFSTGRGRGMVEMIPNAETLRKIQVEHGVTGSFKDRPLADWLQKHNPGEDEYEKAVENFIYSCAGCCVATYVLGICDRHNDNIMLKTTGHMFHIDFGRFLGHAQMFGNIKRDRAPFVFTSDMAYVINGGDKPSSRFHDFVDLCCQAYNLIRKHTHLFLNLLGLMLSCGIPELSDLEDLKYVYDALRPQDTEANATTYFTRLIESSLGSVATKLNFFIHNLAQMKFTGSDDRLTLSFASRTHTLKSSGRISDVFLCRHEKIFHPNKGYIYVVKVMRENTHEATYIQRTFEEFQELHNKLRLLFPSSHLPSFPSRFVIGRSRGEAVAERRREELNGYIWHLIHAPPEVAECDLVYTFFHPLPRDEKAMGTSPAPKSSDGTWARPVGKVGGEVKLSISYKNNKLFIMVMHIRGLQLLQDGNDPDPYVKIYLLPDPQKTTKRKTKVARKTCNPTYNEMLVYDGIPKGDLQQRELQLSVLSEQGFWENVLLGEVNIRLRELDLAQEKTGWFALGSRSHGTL
Text: as §1

PIK3CA = PIK3CA (Homo sapiens, UniProt P42336)
Text: as §1

PIK3CB = PIK3CB (Homo sapiens, UniProt P42338)
Text: as §1

PKMYT1 = PKMYT1 (Homo sapiens, UniProt Q99640)
Text: as §1

[2] = biological target: T4, RSK4(Kin.Dom.2-C-terminal) (Homo sapiens, UniProt Q9UK32)
T4 construct: gene RPS6KA6; Kin.Dom.2-C-terminal
Text: as §1

STK16 = STK16 (Homo sapiens, UniProt O75716)
Text: as §1

TAK1 = biological target: T5, TAK1 (Homo sapiens, UniProt O43318)
T5 construct: gene MAP3K7
Text: as §1

TAOK2 = TAOK2 (Homo sapiens, UniProt Q9UL54)
Text: as §1

| Compound | remaining binding at 10 µM [1] [%] | remaining binding at 10 µM (AURKA) [%] | remaining binding at 10 µM (CSNK1A1L) [%] | remaining binding at 10 µM (DAPK3) [%] | remaining binding at 10 µM (EPHB6) [%] | remaining binding at 10 µM (ERK5) [%] | remaining binding at 10 µM (FES) [%] | remaining binding at 10 µM (FGFR2) [%] | remaining binding at 10 µM (IKK-alpha) [%] | remaining binding at 10 µM (INSR) [%] | remaining binding at 10 µM (KIT(L576P)) [%] | remaining binding at 10 µM (KIT(V559D)) [%] | remaining binding at 10 µM (MAP3K1) [%] | remaining binding at 10 µM (NEK4) [%] | remaining binding at 10 µM (NLK) [%] | remaining binding at 10 µM (PIK3C2B) [%] | remaining binding at 10 µM (PIK3CA) [%] | remaining binding at 10 µM (PIK3CB) [%] | remaining binding at 10 µM (PKMYT1) [%] | remaining binding at 10 µM [2] [%] | other results |
| --- | --- | --- | --- | --- | --- | --- | --- | --- | --- | --- | --- | --- | --- | --- | --- | --- | --- | --- | --- | --- | --- |
| COc1ccc(-c2cnccc2-c2cnc(NC(=O)C(C)C)s2)c(C(F)(F)F)c1 [CRT0105446, N-{5-[3-(4-Methoxy-2-trifluoromethyl-phenyl)-pyridin-4-yl]-hiazol-2-yl}-isobutyramide] | 83 | 100 | 96 | 83 | 86 | 86 | 87 | 100 | 89 | 100 | 36 | 39 | 88 | 91 | 57 | 100 | 100 | 95 | 100 | 16 | remaining binding at 10 µM (STK16): 5%; remaining binding at 10 µM (TAK1): 79%; remaining binding at 10 µM (TAOK2): 76% |
| Cc1ccc(-c2cnccc2-c2cnc(Nc3ccc(O)cc3)s2)c(Cl)c1 [CRT0105950, 4-{5-[3-(2-Chloro-4-methyl-phenyl)-pyridin-4-yl]-thiazol-2-ylamino}-phenol] | 66 | 18 | 74 | 44 | 17 | 93 | 93 | 17 | 94 | 1 | 0.4 | 0.75 | 71 | 77 | 20 | 100 | 100 | 80 | 100 | 2.9 | remaining binding at 10 µM (STK16): 8.7%; remaining binding at 10 µM (TAK1): 33%; remaining binding at 10 µM (TAOK2): 21% |
